Experimental data published in patent US20240027453A1, “METHOD FOR DETECTION AND QUANTITATIVE MONITORING OF INFECTIONS WITH HERPESVIRUSES” (The Trustees of Princeton University, priority 2020, published 2024).

Assays:
HSV-1 [1] = assay: TRUSTED PRM assay of HSV-1 viral protein levels after small molecule treatment; format: cell-based; conditions: for DBP (P04296) protein level / TK (P03176) protein level / UL8 (P10192) protein level / UL12 (P04294) protein level / UL30 (P04293) protein level / UL42 (P10226) protein level / US3 (P04413) protein level: E; for DBP (P04296) protein level / TK (P03176) protein level / UL8 (P10192) protein level / UL12 (P04294) protein level / UL30 (P04293) protein level / UL42 (P10226) protein level / US3 (P04413) protein level / ICP0 (P08393) protein level / ICP4 (P08392) protein level / ICP22 (P04485) protein level / UL54 (P10238) protein level / CVC2 (P10209) protein level / UL26 (P10210) protein level / UL48 (P06492) protein level / UL49 (P10233) protein level / gB (P10211) protein level / gI (P06487) protein level: FIG. 8A; for ICP0 (P08393) protein level / ICP4 (P08392) protein level / ICP22 (P04485) protein level / UL54 (P10238) protein level: IE; for CVC2 (P10209) protein level / UL26 (P10210) protein level / UL48 (P06492) protein level / UL49 (P10233) protein level / gB (P10211) protein level / gI (P06487) protein level: L
Protocol: (§1) In example herpesvirus PRM assay methods shown herein, cell pellets were lysed in 2% SDS, 100 mM NaCl, 0.5 mM EDTA, 50 mM Tris, pH 8.2, and 50 μg of protein was reduced and alkylated with 25 mM TCEP and 50 mM CAM respectively for 20 min at 70° C. Proteins were then precipitated via methanol chloroform precipitation (Wessel & Flugg, Anal Biochem. 138(1):141-143, 1984), resuspended in 50 mM HEPES, pH 8.2 and digested overnight with trypsin (50:1 protein:enzyme w/w ratio). Digested peptides were desalted by SDB-RPS StageTip as previously described (Lum et al., Cell Syst., 7(6):[…], 2018; Greco et al., Methods Mol Biol 1410:39-63, 2016; Federspiel & Cristea, Methods Mol Biol., 1977:115-143, 2019).
(§2) Peptides (1.0 μg on column) were analyzed by LC-MS/MS using a Dionex Ultimate 3000 UHPLC coupled online to an EASYSpray ion source and a Q Exactive HF. Peptides were separated on an EASYSpray C18 column (75 μm×25 cm) heated to 50° C. using a linear gradient of 5% B to 32% B over 60 min at a flow rate of 250 nL/min and were ionized at 1.7 kv. Mobile phase A consisted of 0.1% FA in H2O and mobile phase B consisted of 0.1% FA, 2.9% H2O in ACN.
(§3) The PRM method was controlled by a peptide inclusion list with retention time windows of 6 min for selected precursor ions.
(§4) The PRM assay was developed and analyzed using the open-source software Skyline (Maclean et al., Bioinformatics 26(7):966-968, 2010). Summed area under the curve of 3-4 transitions per peptide was used for quantitation. Targeted peptides were normalized to host protein loading control peptides. Peptide values for each sample were scaled to the average of each peptide across all runs. The average of multiple peptides was used as the inferred value for the protein measurement when more than one peptide was quantified (Federspiel et al., PLoS Biol. 17(9):e3000437. Doi: 10.1371/journal.pbio.3000437). PRM quantitation data were graphed using the Python Seaborn and Matplotlib libraries.
(§5) MRC5 primary human fibroblasts (HFs) (ATCC CCL-171) were used as the model system for HSV-1 and HCMV infections and were cultured in complete growth medium (DMEM supplemented with 10% fetal bovine serum and 1% penicillin-streptomycin antibiotics) at 37° C. and 5% CO2. iSLK.219 cells harboring latent KSHV (a gift from Dr. Britt Glaunsinger, University of California, Berkeley) were grown in complete growth medium supplemented with 500 μg/ml hygromycin (ThermoFisher Scientific, 10687010) at 37° C. and 5% CO2. All cells were used for experiments within a maximum of 10 passages.
(§6) Wild type HSV-1 strain 17+ (a gift from Beate Sodeik, Hannover Medical School, Hannover, Germany) was propagated as previously described (Diner et al., 2015). Briefly, PO stocks were generated by electroporating pBAC-HSV-1 into U-2 OS cells. […] In a similar manner, wild type HCMV strain AD169 was produced from BAC electroporation into HFs and working stocks were propagated by infecting HFs at a low level. In both cases, cell-associated virus was released by sonication, combined with supernatant virus, then concentrated by ultracentrifugation (20,000 rpm, 2 hours, 4° C. with SW28 swinging bucket rotor [Beckman Coulter]) over a 10% ficoll (HSV-1) or 20% sorbitol (HCMV) cushion. Virus stock titers were determined by plaque assay for HSV-1 or tissue culture infectious dose (TCID50) for HCMV and infections were performed at a multiplicity of infection (MOI) of 3.
(§7) 12 hours prior to virus infection or reactivation, cells were treated with either the small molecule drug or DMSO/PBS control at an equivalent volume. […] For infection cycles lasting longer than 24 hours, small molecule drugs were re-added to the cell culture medium every 24 hours. Upon collection, cells were rinsed with PBS, scraped into a microcentrifuge tube, pelleted by centrifugation, and rinsed again with PBS.

HSV-1 [2] = conditions: in MRC5 cells; cited from earlier work
HCMV [3] = format: cell-based
Protocol: as §1, §2, §3, §4, §5, §6, §7

HCMV [4] = conditions: cited from earlier work
iSLK.219 cell line = assay: Toxicity to the iSLK.219 cell line; format: cell-based; conditions: 50 μM
[5] = 1 μM, by and after 12 HPI, vs DMSO

In the case of Nc1nc2c(ncn2COCCO)c(=O)[nH]1 [ACV, acyclovir], the “HSV-1 late gene expression” value (HSV-1 [1]) is reported as “reduction”, the “effect on IE HSV-1 protein levels” value (HSV-1 [1]; 1 μM) is reported as “little effect” and the “levels of HSV-1 proteins DBP, UL42, UL30, UL8, UL12 and UL48” value (HSV-1 [1]; 1 μM) is reported as “significant reduction”. For the same compound, the “decrease in levels of E HSV-1 proteins” value (HSV-1 [1]; [5]) was ~20%, the “decrease in levels of L HSV-1 proteins” value (HSV-1 [1]; [5]) was ~35% and the “expression of IE and E HSV-1 genes” value (HSV-1 [1]; 6 HPI) was “increase”. The IC50 (HSV-1 [2]) was 2000 to 3000 nM.

For Oc1ccc(/C=C/c2cc(O)cc(O)c2)cc1 [Res], the “DBP (P04296) protein level” value (HSV-1 [1]; timepoint 2) was 0.02121, the “TK (P03176) protein level” value (HSV-1 [1]; timepoint 2) was 0.03832 and the “UL8 (P10192) protein level” value (HSV-1 [1]; timepoint 2) was 0.0171. The “UL12 (P04294) protein level” value (HSV-1 [1]; timepoint 2) was 0.01763, the “UL30 (P04293) protein level” value (HSV-1 [1]; timepoint 2) was 0.03876 and the “UL42 (P10226) protein level” value (HSV-1 [1]; timepoint 2) was 0.003041. The “US3 (P04413) protein level” value (HSV-1 [1]; timepoint 2) was 0.01605, the “ICP0 (P08393) protein level” value (HSV-1 [1]; timepoint 2) was 0.1622 and the “ICP4 (P08392) protein level” value (HSV-1 [1]; timepoint 2) was 0.1073. The “ICP22 (P04485) protein level” value (HSV-1 [1]; timepoint 2) was 0.015, the “UL54 (P10238) protein level” value (HSV-1 [1]; timepoint 2) was 0.0667 and the “CVC2 (P10209) protein level” value (HSV-1 [1]; timepoint 2) was 0.01003. For the same compound, the “UL26 (P10210) protein level” value (HSV-1 [1]; timepoint 2) was 0.003453, the “UL48 (P06492) protein level” value (HSV-1 [1]; timepoint 2) was 0.007183 and the “UL49 (P10233) protein level” value (HSV-1 [1]; timepoint 2) was 0.009894. For the same compound, the “gB (P10211) protein level” value (HSV-1 [1]; timepoint 2) was 0.0128, the “gI (P06487) protein level” value (HSV-1 [1]; timepoint 2) was 0.00718 and the “DBP (P04296) protein level” value (HSV-1 [1]; timepoint 6) was 0.9121. For the same compound, the “TK (P03176) protein level” value (HSV-1 [1]; timepoint 6) was 0.9707, the “UL8 (P10192) protein level” value (HSV-1 [1]; timepoint 6) was 1.056 and the “UL12 (P04294) protein level” value (HSV-1 [1]; timepoint 6) was 0.7418. The “UL30 (P04293) protein level” value (HSV-1 [1]; timepoint 6) was 1.353, the “UL42 (P10226) protein level” value (HSV-1 [1]; timepoint 6) was 0.2866 and the “US3 (P04413) protein level” value (HSV-1 [1]; timepoint 6) was 0.616. For the same compound, the “ICP0 (P08393) protein level” value (HSV-1 [1]; timepoint 6) was 0.5333, the “ICP4 (P08392) protein level” value (HSV-1 [1]; timepoint 6) was 1.063 and the “ICP22 (P04485) protein level” value (HSV-1 [1]; timepoint 6) was 0.7429. For the same compound, the “UL54 (P10238) protein level” value (HSV-1 [1]; timepoint 6) was 0.9415, the “CVC2 (P10209) protein level” value (HSV-1 [1]; timepoint 6) was 0.2592 and the “UL26 (P10210) protein level” value (HSV-1 [1]; timepoint 6) was 0.1986. The “UL48 (P06492) protein level” value (HSV-1 [1]; timepoint 6) was 0.1816, the “UL49 (P10233) protein level” value (HSV-1 [1]; timepoint 6) was 0.428 and the “gB (P10211) protein level” value (HSV-1 [1]; timepoint 6) was 0.5098. The “gI (P06487) protein level” value (HSV-1 [1]; timepoint 6) was 0.5705, the “TK (P03176) protein level” value (HSV-1 [1]; timepoint 12) was 1.24 and the “UL8 (P10192) protein level” value (HSV-1 [1]; timepoint 12) was 0.9123. For the same compound, the “UL12 (P04294) protein level” value (HSV-1 [1]; timepoint 12) was 0.8878, the “UL30 (P04293) protein level” value (HSV-1 [1]; timepoint 12) was 1.001 and the “UL42 (P10226) protein level” value (HSV-1 [1]; timepoint 12) was 0.7743. For the same compound, the “US3 (P04413) protein level” value (HSV-1 [1]; timepoint 12) was 1.156, the “ICP0 (P08393) protein level” value (HSV-1 [1]; timepoint 12) was 1.108 and the “ICP4 (P08392) protein level” value (HSV-1 [1]; timepoint 12) was 1.101. For the same compound, the “ICP22 (P04485) protein level” value (HSV-1 [1]; timepoint 12) was 1.241, the “UL54 (P10238) protein level” value (HSV-1 [1]; timepoint 12) was 1.026 and the “CVC2 (P10209) protein level” value (HSV-1 [1]; timepoint 12) was 0.7067. The “UL26 (P10210) protein level” value (HSV-1 [1]; timepoint 12) was 0.7549, the “UL48 (P06492) protein level” value (HSV-1 [1]; timepoint 12) was 0.8411 and the “UL49 (P10233) protein level” value (HSV-1 [1]; timepoint 12) was 1.283. For the same compound, the “gB (P10211) protein level” value (HSV-1 [1]; timepoint 12) was 1.286, the “gI (P06487) protein level” value (HSV-1 [1]; timepoint 12) was 0.956 and the “TK (P03176) protein level” value (HSV-1 [1]; timepoint 18) was 0.9806. The “UL8 (P10192) protein level” value (HSV-1 [1]; timepoint 18) was 0.8259, the “UL12 (P04294) protein level” value (HSV-1 [1]; timepoint 18) was 0.7425 and the “UL30 (P04293) protein level” value (HSV-1 [1]; timepoint 18) was 0.7926. The “UL42 (P10226) protein level” value (HSV-1 [1]; timepoint 18) was 0.7837, the “US3 (P04413) protein level” value (HSV-1 [1]; timepoint 18) was 0.9457 and the “ICP0 (P08393) protein level” value (HSV-1 [1]; timepoint 18) was 1.159. For the same compound, the “ICP4 (P08392) protein level” value (HSV-1 [1]; timepoint 18) was 1.049, the “ICP22 (P04485) protein level” value (HSV-1 [1]; timepoint 18) was 1.213 and the “UL54 (P10238) protein level” value (HSV-1 [1]; timepoint 18) was 0.8148. The “CVC2 (P10209) protein level” value (HSV-1 [1]; timepoint 18) was 0.601, the “UL26 (P10210) protein level” value (HSV-1 [1]; timepoint 18) was 0.8898 and the “UL48 (P06492) protein level” value (HSV-1 [1]; timepoint 18) was 0.9275. For the same compound, the “gB (P10211) protein level” value (HSV-1 [1]; timepoint 18) was 1.306 and the “gI (P06487) protein level” value (HSV-1 [1]; timepoint 18) was 1.003.

In the case of Oc1ccc(/C=C/c2cc(O)cc(O)c2)cc1 [trans-Resveratrol], the “levels of HSV-1 viral transactivators ICP4 and UL48 (VP16)” value (HSV-1 [1]; 10 μM EX-527, 50 μM trans-Resveratrol) is reported as “downregulated”, the “decrease in HSV-1 protein levels” value (HSV-1 [1]; 50 μM) is reported as 30-40% and the “HCMV UL122 (IE2) and UL123 (IE1) levels” value (HCMV [3]) is reported as “decreases”. The “HCMV UL123 levels” value (HCMV [3]; 24 HPI, […] CAY10602, 50 μM trans-Resveratrol) was “unchanged”, the “HCMV UL26 levels” value (HCMV [3]; 48 HPI, […] CAY10602, 50 μM trans-Resveratrol) was “decreased” and the “HCMV viral protein production” value (HCMV [3]; by 48 HPI) was “global reduction”. For the same compound, the “HCMV UL99 levels” value (HCMV [3]; by 72 HPI, […] CAY10602, 50 μM trans-Resveratrol) was “robustly decreased”, the “global decrease in HCMV viral protein levels” value (HCMV [3]; by 120 HPI, […] CAY10602, 50 μM trans-Resveratrol) was ~70% and the “decrease in HCMV titers” value (HCMV [4]; […] CAY10602, 50 μM trans-Resveratrol) was ~50%. For the same compound, the HCMV titers (HCMV [4]) was “decreased” and the “toxicity to the iSLK.219 cell line” value (iSLK.219 cell line) was “toxic”.
